Experiment [1] relates to Human Coronavirus 229E (HCoV-229E). The experiment can be described thus: animal or person. It counts as in vivo. The following applies: for inhibition in vivo at 40 mg/kg/day / inhibition in vivo at 50 mg/kg/day / inhibition in vivo at 7.5 mg/kg/day / inhibition in vivo at 15 mg/kg/day / inhibition in vivo at 30 mg/kg/day: Human coronavirus 229E, in Mus musculus, po, 96 h, read-out: inhibition rate (%).

Experiment [2] has as its system Influenza A (H1N1) virus FM1 strain. Description: Mouse pneumonia model infected with influenza A (H1N1) virus FM1 strain (lung index). The format is in vivo, ICR mice. As for the experimental part:
ICR mice were taken and randomly divided into: normal control group, model control group, ribavirin control group, compound 4, compound F1, compound F2, and compound F3 according to their weight class, and each drug was given in two dosage groups (10 mice in each group). Except for the normal control group, mice were slightly anesthetized with ether and infected with 15 LD50 H1N1 influenza virus liquid FM1 strain by nasal drops (30 μl per animal). The administration was started on the day of infection at 0.2 ml/10 g by gavage each time once a day for 4 days, and the normal control and model control groups were gavaged with distilled water under the same conditions. The mice were weighed and dissected on Day 5, and the lung was weighed to calculate lung index and lung index inhibition. The results were statistically processed using t-test for comparison between groups.
(§1) ICR mice were taken and randomly divided by weight class: normal control group, model control group, oseltamivir control group, compound 4, compound F4, compound F5, compound 5, and compound 7 according to their weight class, and each drug was given in two dosage groups (10 mice in each group). Except for the normal control group, mice were slightly anesthetized with ether and infected with 15 LD50 H1N1 influenza virus liquid (FM1/PR8 strain) by nasal drops (30 μl per each animal). The administration was started on the day of infection at 0.2 ml/10 g by gavage each time once a day for 4 days, and the normal control and model control groups were gavaged with distilled water under the same conditions. The mice were weighed and dissected on Day 5, and lung was weighed to calculate lung index and lung index inhibition. The results were statistically processed using t-test for comparison between groups.
(§2) ICR mice were taken and randomly divided into 9 groups according to the body weight: a normal control group, model control group, oseltamivir control group, and two dosage groups of Compound 9, Compound 12 and Compound 2, 10 mice in each group. Except the normal control group, mice were slightly anesthetized with ether and infected with 15 LD50 H1N1/PR8 influenza virus liquid by nasal drops at 30 μl per mouse. The administration was started on the day of infection, at 0.2 ml/10 g each time by gavage once a day for 4 days, and the normal control and model control groups were gavaged with distilled water under the same conditions. The mice were weighed and dissected on Day 5, and lungs were weighed to calculate lung index and lung index inhibition. The results were statistically processed using t-test for comparison between groups.

For experiment [3], the system named is Sendai strain of parainfluenza virus. It counts as in vivo. The following applies: Table 11 (Example 24).
The test system of experiment [4] is Influenza A (H1N1) virus PR8 strain. The experiment can be described thus: Mouse pneumonia model infected with influenza A (H1N1) virus PR8 strain (lung index). It counts as in vivo, ICR mice. As for the experimental part:
as §1, §2

Setting [5] is: Table 4 (Example 15), 40 mg/kg/d gavage for 4 days.
The mark [6] stands for this setting: Table 4 (Example 15), 50 mg/kg/d gavage for 4 days.
The mark [7] stands for this setting: Influenza A virus, H1N1, po, 96 h, Table 1 (Example 13), 25 mg/kg gavage once a day for 4 days, read-out: inhibition rate (%).
Setting [8] is: Influenza A virus, H1N1, po, 96 h, Table 1 (Example 13), 50 mg/kg gavage once a day for 4 days, read-out: inhibition rate (%).
Where [9] appears, read: Table 1 (Example 13), 25 mg/kg gavage once a day for 4 days.
[10] abbreviates: Table 1 (Example 13), 50 mg/kg gavage once a day for 4 days.
Where [11] appears, read: Table 10 (Example 23), 7.5 mg/kg/d gavage for 4 days.
[12] abbreviates: Table 5 (Example 16), 7.5 mg/kg/d gavage for 4 days.
[13] abbreviates: Table 5 (Example 16), 15 mg/kg/d gavage for 4 days.
[14] abbreviates: Table 5 (Example 16), 30 mg/kg/d gavage for 4 days.
The mark [15] stands for this setting: Influenza A virus, H1N1, po, 96 h, Table 2 (Example 14), 20 mg/kg gavage once a day for 4 days, read-out: inhibition rate (%).
The mark [16] stands for this setting: Influenza A virus, H1N1, po, 96 h, Table 2 (Example 14), 40 mg/kg gavage once a day for 4 days, read-out: inhibition rate (%).
The mark [17] stands for this setting: Table 2 (Example 14), 20 mg/kg gavage once a day for 4 days.
Setting [18] is: Table 2 (Example 14), 40 mg/kg gavage once a day for 4 days.
[19] abbreviates: Table 13 (Example 25), 27.5 mg/kg/d gavage for 4 days.
Where [20] appears, read: Table 12 (Example 25), 27.5 mg/kg/d gavage for 4 days.

Molecules are shown by their SMILES. Like-named read-outs stand apart in the source and are kept apart here.

Take `COc1ccc(-c2coc3cc(O[C@@H]4OC(CO)[C@@H](O)C(O)C4O)ccc3c2=O)cc1O` (stereo partly shown) [Compound F2, reference compound]: the inhibition in vivo at 40 mg/kg/day in experiment [1] (setting [5]) came to 1.45%. The inhibition in vivo at 50 mg/kg/day in experiment [1] (setting [6]) turned out to be 10.6%. Further, the lung index in experiment [1] (setting [5]) is 0.84 ± 0.05 g lung weight × 100/g body weight; in experiment [1] (setting [6]), 0.82 ± 0.06 g lung weight × 100/g body weight; in experiment [2] (setting [9]) it was 1.13 ± 0.18; in experiment [2] (setting [10]) it was 1.12 ± 0.17. Moreover, the inhibition in vivo at 25 mg/kg in experiment [2] (setting [7]) stood at 17.1%. Further, the inhibition in vivo at 50 mg/kg in experiment [2] (setting [8]) was 19.1%.

As for `CC(=O)N(CCOc1ccc2c(=O)c(-c3ccccc3)coc2c1)C1CC1` [Compound 10], the inhibition in vivo at 7.5 mg/kg/day in experiment [1] (setting [11]) is 25.6%. Besides, the lung index is listed as 0.85 ± 0.06 g lung weight × 100/g body weight in experiment [1] (setting [11]), 0.83 ± 0.06 Lung weight * 100/body weight in experiment [3] (7.5 mg/kg/d gavage for 4 days) and 0.86 ± 0.05 Lung weight * 100/body weight in experiment [3] (15 mg/kg/d gavage for 4 days). The inhibition rate % in experiment [3] (7.5 mg/kg/d gavage for 4 days) is 7.43%; in experiment [3] (15 mg/kg/d gavage for 4 days), −16.30%.

For `CCC(=O)N(CCOc1ccc2c(=O)c(-c3ccccc3)coc2c1)C1CC1` [Compound 11], in experiment [1] (setting [11]), the inhibition in vivo at 7.5 mg/kg/day came out at 14.1%. Moreover, the lung index in experiment [1] (setting [11]) is reported as 0.87 ± 0.08 g lung weight × 100/g body weight; in experiment [3] (7.5 mg/kg/d gavage for 4 days), 0.87 ± 0.04 Lung weight * 100/body weight; in experiment [3] (15 mg/kg/d gavage for 4 days), 0.83 ± 0.05 Lung weight * 100/body weight. For the same molecule, the inhibition rate % in experiment [3] (7.5 mg/kg/d gavage for 4 days) is listed as −20.73%; in experiment [3] (15 mg/kg/d gavage for 4 days) it was 6.19%.

In the case of `CC1(NCCOc2ccc3c(=O)c(-c4ccccc4)coc3c2)CC1` [Compound 5], in experiment [1] (setting [12]), the inhibition in vivo at 7.5 mg/kg/day came out at 22.7%. Moreover, the inhibition in vivo at 15 mg/kg/day in experiment [1] (setting [13]) was -17%. For the same molecule, in experiment [1] (setting [14]), the inhibition in vivo at 30 mg/kg/day was -7%. Besides, the lung index in experiment [1] (setting [12]) is given as 0.76 ± 0.08 g lung weight × 100/g body weight; in experiment [1] (setting [13]), 0.80 ± 0.10 g lung weight × 100/g body weight; in experiment [1] (setting [14]), 0.79 ± 0.08 g lung weight × 100/g body weight; in experiment [2] (setting [17]) it was 1.20 ± 0.16; in experiment [2] (setting [18]), 1.07 ± 0.21. Further, in experiment [2] (setting [15]), the inhibition in vivo at 20 mg/kg was -25.1%. The inhibition in vivo at 40 mg/kg in experiment [2] (setting [16]) came out at 8.44%.

As for `COc1ccc(-c2coc3cc(O)ccc3c2=O)cc1O` [Compound F3, reference compound], in experiment [1] (setting [5]), the inhibition in vivo at 40 mg/kg/day stood at 7.71%. Also, the inhibition in vivo at 50 mg/kg/day in experiment [1] (setting [6]) amounted to 1.81%. Moreover, the lung index in experiment [1] (setting [5]) is recorded as 0.83 ± 0.09 g lung weight × 100/g body weight; in experiment [1] (setting [6]) it was 0.84 ± 0.06 g lung weight × 100/g body weight; in experiment [2] (setting [9]) it was 1.19 ± 0.31; in experiment [2] (setting [10]), 1.31 ± 0.22. Further, in experiment [2] (setting [7]), the inhibition in vivo at 25 mg/kg was determined as 4.07%. In addition, the inhibition in vivo at 50 mg/kg in experiment [2] (setting [8]) was -18.7%.

In the case of `O=c1c(-c2ccccc2)coc2cc(OCCNC3CCCCC3)ccc12` [Compound 7], the inhibition in vivo at 7.5 mg/kg/day in experiment [1] (setting [12]) was -17%. The inhibition in vivo at 15 mg/kg/day in experiment [1] (setting [13]) worked out at 41.6%. In experiment [1] (setting [14]), the inhibition in vivo at 30 mg/kg/day was 15.8%. In addition, the lung index is 0.80 ± 0.09 g lung weight × 100/g body weight in experiment [1] (setting [12]); 0.74 ± 0.06 g lung weight × 100/g body weight in experiment [1] (setting [13]); 0.76 ± 0.07 g lung weight × 100/g body weight in experiment [1] (setting [14]); 1.02 ± 0.12 in experiment [2] (setting [17]); 0.98 ± 0.18 in experiment [2] (setting [18]). In addition, the inhibition in vivo at 20 mg/kg in experiment [2] (setting [15]) was found to be 21%. The inhibition in vivo at 40 mg/kg in experiment [2] (setting [16]) came to 30.2%.

As for `COCCOc1ccc2c(=O)c(-c3ccccc3)coc2c1` [Compound F4, reference compound], the inhibition in vivo at 7.5 mg/kg/day in experiment [1] (setting [12]) was -86%. In addition, the inhibition in vivo at 15 mg/kg/day in experiment [1] (setting [13]) is -64%. Moreover, the inhibition in vivo at 30 mg/kg/day in experiment [1] (setting [14]) was determined as 37.2%. The lung index in experiment [1] (setting [12]) is 0.86 ± 0.07 g lung weight × 100/g body weight; in experiment [1] (setting [13]), 0.84 ± 0.07 g lung weight × 100/g body weight; in experiment [1] (setting [14]) it was 0.75 ± 0.13 g lung weight × 100/g body weight; in experiment [2] (setting [17]) it was 1.14 ± 0.12; in experiment [2] (setting [18]) it was 1.22 ± 0.13. The inhibition in vivo at 20 mg/kg in experiment [2] (setting [15]) was -9.25%. Besides, in experiment [2] (setting [16]), the inhibition in vivo at 40 mg/kg is -29.3%.

With `CC(=O)NCCOc1ccc2c(=O)c(-c3ccccc3)coc2c1` [Compound F5, reference compound], in experiment [1] (setting [12]), the inhibition in vivo at 7.5 mg/kg/day was -41%. Also, the inhibition in vivo at 15 mg/kg/day in experiment [1] (setting [13]) is -72%. The inhibition in vivo at 30 mg/kg/day in experiment [1] (setting [14]) turned out to be 17%. For the same molecule, the lung index in experiment [1] (setting [12]) is given as 0.82 ± 0.08 g lung weight × 100/g body weight; in experiment [1] (setting [13]), 0.85 ± 0.08 g lung weight × 100/g body weight; in experiment [1] (setting [14]), 0.77 ± 0.11 g lung weight × 100/g body weight; in experiment [2] (setting [17]), 1.22 ± 0.11; in experiment [2] (setting [18]), 1.10 ± 0.24. Further, the inhibition in vivo at 20 mg/kg in experiment [2] (setting [15]) is -31.3%. The inhibition in vivo at 40 mg/kg in experiment [2] (setting [16]) is 0.35%.

`O=c1c(-c2ccccc2)coc2cc(O)ccc12` [Compound F1, reference compound]: the inhibition in vivo at 40 mg/kg/day in experiment [1] (setting [5]) stood at 15.9%. The inhibition in vivo at 50 mg/kg/day in experiment [1] (setting [6]) came to 20.4%. The inhibition in vivo at 7.5 mg/kg/day in experiment [1] (setting [11]) came to 27.2%. Further, the lung index in experiment [1] (setting [5]) is recorded as 0.81 ± 0.06 g lung weight × 100/g body weight; in experiment [1] (setting [6]), 0.80 ± 0.05 g lung weight × 100/g body weight; in experiment [1] (setting [11]) it was 0.85 ± 0.07 g lung weight × 100/g body weight; in experiment [2] (setting [9]), 1.17 ± 0.09; in experiment [2] (setting [10]), 1.06 ± 0.13. Moreover, the inhibition in vivo at 25 mg/kg in experiment [2] (setting [7]) was 11.1%. Further, the inhibition in vivo at 50 mg/kg in experiment [2] (setting [8]) amounted to 30%.

Turning to `CCOC(=O)C1=C[C@@H](OC(CC)CC)[C@H](NC(C)=O)[C@@H](N)C1` [Oseltamivir, Oseltamivir phosphate, reference compound], the inhibition in vivo at 27.5 mg/kg in experiment [2] (Influenza A virus, H1N1, po, 96 h, Table 2 (Example 14), 27.5 mg/kg gavage once a day for 4 days, read-out: inhibition rate (%)) was found to be 62.1%. Further, the lung index was 0.86 ± 0.21 in experiment [2] (Table 2 (Example 14), 27.5 mg/kg gavage once a day for 4 days); 0.74 ± 0.065 Lung weight * 100/body weight in experiment [2] (setting [19]); 0.71 ± 0.069 Lung weight * 100/body weight in experiment [4] (setting [20]). Besides, the inhibition rate % in experiment [2] (setting [19]) was 64.57%; in experiment [4] (Table 3 (Example 14), 27.5 mg/kg gavage once a day for 4 days), 58.89%; in experiment [4] (setting [20]), 88.97%.

For the origin of these results see patent publication US20250154121A1, “CYCLIC(ALKYL)(AMINO)ALKOXY-SUBSTITUTED ARYL-PYRONE COMPOUND AND USE THEREOF” (priority 2022, published 2025).
